Biological target: Human immunodeficiency virus type 1 protease (Human immunodeficiency virus 1, UniProt Q72874)
Experiment: Inhibitory activity against HIV-1 Protease was determined
Conditions: not given

Row | Structure (SMILES) | IC50 [nM]
1 | CC(C)(C)NC(=O)[C@@H]1CCCCN1C[C@@H](O)[C@H](Cc1ccccc1)NC(=O)[C@H](CC(N)=O)NC(=O)c1ccc2ccccc2n1 | 2

System: Human immunodeficiency virus
Experiment: In vitro antiviral activity against human immuno deficiency virus was determined
Assay type: functional, organism-based
Conditions: Human immunodeficiency virus 1

Row | Structure (SMILES) | IC50 [nM]
2 | CC(C)(C)NC(=O)[C@@H]1CCCCN1C[C@@H](O)[C@H](Cc1ccccc1)NC(=O)[C@H](CC(N)=O)NC(=O)c1ccc2ccccc2n1 | 17
3 | CC(C)(C)NC(=O)[C@@H]1CCCC[C@@H]1C[C@@H](O)[C@H](Cc1ccccc1)NC(=O)[C@H](CC(N)=O)NC(=O)OCc1ccccc1 | 1000
4 | CC(C)(C)NC(=O)[C@@H]1CCCCN1C[C@@H](O)[C@H](Cc1ccccc1)NC(=O)[C@H](CC(N)=O)NC(=O)OCc1ccccc1 | 300
5 | CC(C)(C)NC(=O)[C@@H]1CCCC[C@H]1C[C@@H](O)[C@H](Cc1ccccc1)NC(=O)[C@H](CC(N)=O)NC(=O)OCc1ccccc1 (mixture of isomers) | 40

Stronger by IC50, values ahead:

Row | IC50 [nM] | Structure (SMILES)
6 | 4 | CC(C)(C)NC(=O)[C@@H]1CCCC[C@H]1C[C@@H](O)[C@H](Cc1ccccc1)NC(=O)[C@H](CC(N)=O)NC(=O)c1ccc2ccccc2n1
7 | 2 | CC(C)(C)NC(=O)[C@@H]1C[C@@H]2CCCCC2CN1C[C@@H](O)[C@H](Cc1ccccc1)NC(=O)[C@H](CC(N)=O)NC(=O)c1ccc2ccccc2n1 (single isomer, unassigned)
